# Measurements as given in publication PMC4138103 (PLoS ONE, 2014).
# Where two headings read alike, the source gives them in different places.
# What was measured:
# human TTR [1] = biological target: T1, human TTR (Homo sapiens, UniProt P02766); assay: Competition with [125I]-T4 for binding to transthyretin; conditions: for Relative potency (REP), Exp 1 / Relative potency (REP), Exp 2 / Relative potency (REP), Mean: TTR binding relative to T4; for IC50: TTR binding, [125I]-T4 competition
# T1 construct: purchased Sigma Aldrich
# Protocol: Full dose-response curves within the range of 1–100 nM were determined for each OH-PCB metabolite.
# human TTR [2] = biological target: T1, human TTR; assay: as above; conditions: @100 nM
# HepG2 cells = test system: HepG2 cells; set-up: method as in Al-Anati et al., in preparation; conditions: ref Al-Anati et al., in preparation; cited from earlier work
# rats = test system: rats; set-up: method as in PMID 8935785; conditions: dietary exposure 90 days; cited from earlier work
# [3] = read-out: IC50, Full dose-resonse experiments, Exp 1
# [4] = read-out: IC50, Full dose-resonse experiments, Exp 2
SMILES,"Relative potency (REP), Exp 1 (human TTR [1])","Relative potency (REP), Exp 2 (human TTR [1])","Relative potency (REP), Mean (human TTR [1])","IC50 (human TTR [1]; n = 2, read-out: IC50, Mean)",IC50 (human TTR [1]; [3]),IC50 (human TTR [1]; [4]),"T4 displacement, Pilot experiment (human TTR [2])",Expression of DNA damage markers pChk1Ser317 and γH2AXSer319 (HepG2 cells),NOAEL (rats),"NOAEL, equivalent daily dose (rats)","NOAEL, equivalent total dose (rats)"
Oc1c(Cl)cc(-c2cc(Cl)c(Cl)c(Cl)c2Cl)c(Cl)c1Cl [4'-OH-PCB 172],5.37,3.90,4.64,0.013 µM,0.0119 µM,0.0141 µM,95% T4 displacement @100 nM,–,–,–,–
Oc1c(Cl)c(Cl)c(Cl)c(-c2cc(Cl)c(Cl)cc2Cl)c1Cl [5-OH-PCB 183],3.54,2.61,3.08,0.0196 µM,0.0181 µM,0.0211 µM,92% T4 displacement @100 nM,–,–,–,–
Oc1c(Cl)c(Cl)cc(-c2cc(Cl)c(Cl)c(Cl)c2Cl)c1Cl [3'-OH-PCB 180],3.96,2.84,3.40,0.0178 µM,0.0162 µM,0.0194 µM,95% T4 displacement @100 nM,induced,–,–,–
"Clc1cc(Cl)c(-c2cc(Cl)c(Cl)cc2Cl)cc1Cl [PCB 153, 2,2′,4,4′,5,5′-hexachlorobiphenyl]",–,–,–,–,–,–,–,–,0.5 mg/kg diet,34 µg/kg bw/day,3.1 mg/kg bw
Oc1c(Cl)cc(Cl)c(-c2cc(Cl)c(Cl)c(Cl)c2Cl)c1Cl [3' OH-PCB 182],3.68,2.68,3.18,0.019 µM,0.0175 µM,0.0205 µM,93% T4 displacement @100 nM,–,–,–,–
